Experimental data reported in PubChem BioAssay (NCI).
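Compound exposure: 48 hours, 5 concentrations, 96-well plates. At the TGI there is no net growth.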

Columns and labels:
Experiment in all cases: NCI anticancer screen, dose series, 48 h
786-0 renal = tested on: 786-0 renal
A498 renal = tested on: A498 renal
A549 NSCLC = tested on: A549 NSCLC
ACHN renal = tested on: ACHN renal
BT-549 breast = tested on: BT-549 breast
CAKI-1 renal = tested on: CAKI-1 renal
CCRF-CEM leukemia = tested on: CCRF-CEM leukemia
COLO 205 colon = tested on: COLO 205 colon
EKVX NSCLC = tested on: EKVX NSCLC
HCT-116 colon = tested on: HCT-116 colon
HCT-15 colon = tested on: HCT-15 colon
HL-60(TB) leukemia = tested on: HL-60(TB) leukemia
HOP-62 NSCLC = tested on: HOP-62 NSCLC
HOP-92 NSCLC = tested on: HOP-92 NSCLC
HS 578T breast = tested on: HS 578T breast
HT29 colon = tested on: HT29 colon
IGROV1 ovarian = tested on: IGROV1 ovarian
K-562 leukemia = tested on: K-562 leukemia
KM12 colon = tested on: KM12 colon
LOX IMVI melanoma = tested on: LOX IMVI melanoma
M14 melanoma = tested on: M14 melanoma
MALME-3M melanoma = tested on: MALME-3M melanoma
MCF7 breast = tested on: MCF7 breast
MDA-MB-231 breast = tested on: MDA-MB-231 breast
MDA-MB-435 = tested on: MDA-MB-435
MDA-N = tested on: MDA-N
MOLT-4 leukemia = tested on: MOLT-4 leukemia
NCI-H226 lung = tested on: NCI-H226 lung
NCI-H23 lung = tested on: NCI-H23 lung
NCI-H460 lung = tested on: NCI-H460 lung
NCI/ADR-RES ovarian = tested on: NCI/ADR-RES ovarian
OVCAR-3 ovarian = tested on: OVCAR-3 ovarian
OVCAR-4 ovarian = tested on: OVCAR-4 ovarian
OVCAR-5 ovarian = tested on: OVCAR-5 ovarian
OVCAR-8 ovarian = tested on: OVCAR-8 ovarian
PC-3 prostate = tested on: PC-3 prostate
RXF 393 renal = tested on: RXF 393 renal
SF-295 CNS = tested on: SF-295 CNS
SF-539 CNS = tested on: SF-539 CNS
SK-MEL-2 melanoma = tested on: SK-MEL-2 melanoma
SK-MEL-28 melanoma = tested on: SK-MEL-28 melanoma
SK-MEL-5 melanoma = tested on: SK-MEL-5 melanoma
SK-OV-3 ovarian = tested on: SK-OV-3 ovarian
SN12C renal = tested on: SN12C renal
SNB-19 CNS = tested on: SNB-19 CNS
SNB-75 CNS = tested on: SNB-75 CNS
SR leukemia = tested on: SR leukemia
SW-620 colon = tested on: SW-620 colon
TK-10 renal = tested on: TK-10 renal
U251 CNS = tested on: U251 CNS
UACC-257 melanoma = tested on: UACC-257 melanoma
UACC-62 melanoma = tested on: UACC-62 melanoma
UO-31 renal = tested on: UO-31 renal
DU-145 prostate = tested on: DU-145 prostate
NCI-H522 lung = tested on: NCI-H522 lung
RPMI-8226 leukemia = tested on: RPMI-8226 leukemia
SF-268 CNS = tested on: SF-268 CNS

## CC1CCC2C(C)(C)CC3(C)CCC1C23O (stereo unspecified)
786-0 renal
  TGI: 29 µM
A498 renal
  TGI: 36.7 µM
A549 NSCLC
  TGI: 37 µM
ACHN renal
  TGI: 29.7 µM
BT-549 breast
  TGI: 32 µM
CAKI-1 renal
  TGI: 27.2 µM
CCRF-CEM leukemia
  TGI: 21.7 µM
COLO 205 colon
  TGI: 33.2 µM
EKVX NSCLC
  TGI: 28.3 µM
HCT-116 colon
  TGI: 27.9 µM
HCT-15 colon
  TGI: 30.6 µM
HL-60(TB) leukemia
  TGI: 5.57 µM
HOP-62 NSCLC
  TGI: 30.6 µM
HOP-92 NSCLC
  TGI: 26.4 µM
HS 578T breast
  TGI: 30.3 µM
HT29 colon
  TGI: 29.9 µM
IGROV1 ovarian
  TGI: 29.4 µM
K-562 leukemia
  TGI: 40.9 µM
KM12 colon
  TGI: 29.1 µM
LOX IMVI melanoma
  TGI: 28.9 µM
M14 melanoma
  TGI: 29.4 µM
MALME-3M melanoma
  TGI: 26.2 µM
MCF7 breast
  TGI: 29.3 µM
MDA-MB-231 breast
  TGI: 29.7 µM
MDA-MB-435
  TGI: 30.5 µM
MDA-N
  TGI: 25.3 µM
MOLT-4 leukemia
  TGI: 28 µM
NCI-H226 lung
  TGI: 29.9 µM
NCI-H23 lung
  TGI: 29.6 µM
NCI-H460 lung
  TGI: 30.7 µM
NCI/ADR-RES ovarian
  TGI: 28 µM
OVCAR-3 ovarian
  TGI: 29.9 µM
OVCAR-4 ovarian
  TGI: 49.6 µM
OVCAR-5 ovarian
  TGI: 34.9 µM
OVCAR-8 ovarian
  TGI: 34.4 µM
PC-3 prostate
  TGI: 25.7 µM
RXF 393 renal
  TGI: 30.8 µM
SF-295 CNS
  TGI: 25.8 µM
SF-539 CNS
  TGI: 31.6 µM
SK-MEL-2 melanoma
  TGI: 27.3 µM
SK-MEL-28 melanoma
  TGI: 29.8 µM
SK-MEL-5 melanoma
  TGI: 27.7 µM
SK-OV-3 ovarian
  TGI: 89.2 µM
SN12C renal
  TGI: 32.6 µM
SNB-19 CNS
  TGI: > 100 µM
SNB-75 CNS
  TGI: 48.4 µM
SR leukemia
  TGI: 29.1 µM
SW-620 colon
  TGI: 30.2 µM
TK-10 renal
  TGI: 31.6 µM
U251 CNS
  TGI: 29.5 µM
UACC-257 melanoma
  TGI: 29.7 µM
UACC-62 melanoma
  TGI: 28.2 µM
UO-31 renal
  TGI: 30 µM

## O=c1cc(-c2ccccc2)nc(-n2[nH]c3c(c2=O)CCCC3)[nH]1
786-0 renal
  TGI: 46.3 µM
A498 renal
  TGI: > 100 µM
A549 NSCLC
  TGI: > 100 µM
ACHN renal
  TGI: 80.1 µM
BT-549 breast
  TGI: > 100 µM
CAKI-1 renal
  TGI: > 100 µM
CCRF-CEM leukemia
  TGI: 35.8 µM
COLO 205 colon
  TGI: 40.8 µM
DU-145 prostate
  TGI: 3.97 µM
EKVX NSCLC
  TGI: > 100 µM
HCT-116 colon
  TGI: 18.6 µM
HCT-15 colon
  TGI: > 100 µM
HL-60(TB) leukemia
  TGI: > 100 µM
HOP-92 NSCLC
  TGI: > 100 µM
HS 578T breast
  TGI: > 100 µM
HT29 colon
  TGI: 33.8 µM
IGROV1 ovarian
  TGI: > 100 µM
K-562 leukemia
  TGI: > 100 µM
KM12 colon
  TGI: > 100 µM
M14 melanoma
  TGI: 26.8 µM
MALME-3M melanoma
  TGI: > 100 µM
MCF7 breast
  TGI: > 100 µM
MDA-MB-231 breast
  TGI: > 100 µM
MDA-MB-435
  TGI: 89.9 µM
MDA-N
  TGI: > 100 µM
MOLT-4 leukemia
  TGI: > 100 µM
NCI-H226 lung
  TGI: > 100 µM
NCI-H23 lung
  TGI: > 100 µM
NCI-H460 lung
  TGI: > 100 µM
NCI-H522 lung
  TGI: 69.6 µM
OVCAR-4 ovarian
  TGI: 61.9 µM
OVCAR-5 ovarian
  TGI: > 100 µM
PC-3 prostate
  TGI: > 100 µM
RPMI-8226 leukemia
  TGI: 65.7 µM
RXF 393 renal
  TGI: 25.5 µM
SF-268 CNS
  TGI: > 100 µM
SF-295 CNS
  TGI: > 100 µM
SF-539 CNS
  TGI: 44.6 µM
SK-MEL-2 melanoma
  TGI: 29.4 µM
SK-MEL-28 melanoma
  TGI: 28.9 µM
SK-MEL-5 melanoma
  TGI: > 100 µM
SK-OV-3 ovarian
  TGI: > 100 µM
SN12C renal
  TGI: > 100 µM
SNB-19 CNS
  TGI: > 100 µM
SNB-75 CNS
  TGI: 14.2 µM
SR leukemia
  TGI: > 100 µM
SW-620 colon
  TGI: > 100 µM
TK-10 renal
  TGI: > 100 µM
U251 CNS
  TGI: > 100 µM
UACC-257 melanoma
  TGI: > 100 µM
UACC-62 melanoma
  TGI: 15.6 µM
UO-31 renal
  TGI: > 100 µM

## CC(C)=CCNc1ncnc2c1c(C#N)cn2C1OC(CO)C(O)C1O (stereo unspecified)
786-0 renal
  TGI: > 100 µM
A498 renal
  TGI: > 72.6 µM
A549 NSCLC
  TGI: > 100 µM
ACHN renal
  TGI: > 100 µM
BT-549 breast
  TGI: > 100 µM
CAKI-1 renal
  TGI: > 100 µM
CCRF-CEM leukemia
  TGI: 81.5 µM
COLO 205 colon
  TGI: 6.76 µM
DU-145 prostate
  TGI: > 100 µM
EKVX NSCLC
  TGI: > 100 µM
HCT-116 colon
  TGI: > 100 µM
HCT-15 colon
  TGI: > 100 µM
HL-60(TB) leukemia
  TGI: 67.9 µM
HOP-62 NSCLC
  TGI: > 100 µM
HOP-92 NSCLC
  TGI: > 100 µM
HS 578T breast
  TGI: > 100 µM
HT29 colon
  TGI: > 100 µM
IGROV1 ovarian
  TGI: > 100 µM
K-562 leukemia
  TGI: > 100 µM
KM12 colon
  TGI: > 100 µM
LOX IMVI melanoma
  TGI: > 100 µM
M14 melanoma
  TGI: > 100 µM
MALME-3M melanoma
  TGI: > 100 µM
MDA-MB-231 breast
  TGI: > 100 µM
MDA-MB-435
  TGI: > 100 µM
MDA-N
  TGI: > 100 µM
MOLT-4 leukemia
  TGI: > 100 µM
NCI-H226 lung
  TGI: > 100 µM
NCI-H23 lung
  TGI: > 100 µM
NCI-H460 lung
  TGI: 33.6 µM
NCI-H522 lung
  TGI: > 50.3 µM
NCI/ADR-RES ovarian
  TGI: > 100 µM
OVCAR-3 ovarian
  TGI: 77.1 µM
OVCAR-4 ovarian
  TGI: 23.3 µM
OVCAR-5 ovarian
  TGI: > 100 µM
OVCAR-8 ovarian
  TGI: > 100 µM
PC-3 prostate
  TGI: > 100 µM
RPMI-8226 leukemia
  TGI: > 72.9 µM
RXF 393 renal
  TGI: > 100 µM
SF-268 CNS
  TGI: > 100 µM
SF-295 CNS
  TGI: > 100 µM
SF-539 CNS
  TGI: > 100 µM
SK-MEL-2 melanoma
  TGI: > 100 µM
SK-MEL-28 melanoma
  TGI: > 100 µM
SK-MEL-5 melanoma
  TGI: > 100 µM
SK-OV-3 ovarian
  TGI: > 100 µM
SN12C renal
  TGI: > 100 µM
SNB-19 CNS
  TGI: > 100 µM
SNB-75 CNS
  TGI: > 100 µM
SR leukemia
  TGI: > 100 µM
SW-620 colon
  TGI: > 100 µM
TK-10 renal
  TGI: 24.7 µM
U251 CNS
  TGI: > 100 µM
UACC-257 melanoma
  TGI: > 100 µM
UACC-62 melanoma
  TGI: > 100 µM
UO-31 renal
  TGI: > 100 µM
